The text below walks through data of patent publication US5473055A, “Polymer-bound paclitaxel derivatives” (Farmitalia Carlo Erba S.r.l., priority 1992, dated 1995).

Series [1] concerns B16-F10 murine melanoma cells. Put plainly: In vitro drug sensitivity assay. To be noted: 72 hrs incubation, cell counting, read-out: IC50 (dose causing 50% inhibition cell growth). In kind it is cell-based. The method, then: Exponentially growing B16-F10 murine melanoma cells were seeded (2×10^4 /ml) in RPMI 1640 medium were supplemented with 10% heat-inactivated fetal calf serum and 2 mM glutamine in 24 well-plates (Costar). Scalar concentrations of tested compounds were added immediately after seeding. The inhibition of cell growth was evaluated by counting cells with a coulter counter after 72 hrs incubation. For each tested compound concentration triplicate cultures were used. The antiproliferative activity of the tested compounds was calculated from dose-response curves and espressed as IC50 (dose causing 50% inhibition cell growth in treated cultures relative to untreated controls).

For another series, the system named is Calf brain tubulin. Put plainly: Microtubule assembly and disassembly assay. In kind it is biochemical. To be noted: percentage of repolymerisation induced after CaCl2 depolymerisation. As to the method:
Calf brain tubulin was prepared by two cycles of assembly-disassembly (Shelanski M. L. Gaskin F. and Cantor C. R., Proc. Natl. Acad. Sci. U.S.A. 70, 765-768, 1973) and stored in liquid nitrogen in MAB (0.1M MES, 2.5 mM EGTA, 0.5 mM MgSO4, 0.1 mM EDTA, 0.1 mM DTT pH 6.4).
All the experiments were carried out on protein stored for less than 4 weeks.
Before each experiment, the tubulin was kept 30 min at 4° C.
Assembly was monitored by the method of Gaskin et al (Gaskin F., Cantor C. R. Shelanski M. L. J. Molec. Biol 89, 737-758, 1974). The cuvette (1 cm path) containing tubulin (1 mg/ml) and 1 mM GTP was shifted to 37° C. and continous turbidity measurements were made at 340 nm on Perkin-Elmer 557 Double Wavelength Double Beam Spectrophotometer equipped with an automatic recorder and a termostatically regulated sample chamber.
After 30 minutes 4 mM CaCl2 was added and depolymerisation was measured for 10 minutes as decreased turbidity. At regular intervals of 15 minutes scalar doses of the tested compounds were added and variations in the turbidity were monitored. Data are espressed as percentage of ripolymerisation induced by the tested compounds.

For the next series, the system named is B16 F10 murine melanoma. Description: In vivo antitumor activity against B16 F10 murine melanoma. More on the design: species or system C57B16 female mice. The method, then:
The copolymer-paclitaxel prepared in Example 6 was tested in vivo against B16 F10 murine melanoma in comparison with paclitaxel.
C57B16 female mice were obtained from Charles River Italy.
Animals were 8 to 10 weeks old at the beginning of the experiment.
The murine melanoma B16F10 was used. A suspension of 10^5 tumor cells in 0.2 ml was injected subcutaneously in the flank of mice.
Tumor size was measured with caliper and tumor weight was calculated with the formula: [formula]
(§1) The compound of example 6 was injected intravenously. Both compounds were administered at day 1, 5, 9 after tumor implantation.
The dose of the polymer-conjugate is referred to the paclitaxel content.

Series [2] is described as follows: TOX determination in tumor-bearing mice. To be noted: day 1, 5, 9. In kind it is in vivo, C57B16 female mice. As to the method: as §1
TOX: number of mice which died for toxicity.
TOX determination was made when mice died before the control or when significant body weight loss and/or spleen and or/or liver size reduction were observed.

Where two headings read alike, the source gives them in different places.

As to “Copolymer of 1-methacryloylamino-2-hydroxypropane, 1-(methacryloyl-glycyl)amino-2-hydroxypropane and 2'(methacryloyl-glycyl-phenylalanyl-leucyl-glycyl)paclitaxel [Example 4]”, the half-maximal inhibitory concentration (IC50) in series [1] turned out to be 11 µM. For the same compound, the “Tubulin Assembly %” value with Calf brain tubulin (0.5 μM) turned out to be 0%; with Calf brain tubulin (5 μM), 10%.
For `CC(=O)O[C@H]1C(=O)[C@@]2(C)[C@H]([C@H](OC(=O)c3ccccc3)[C@]3(O)C[C@H](OC(=O)[C@H](O)[C@@H](NC(=O)c4ccccc4)c4ccccc4)C(C)=C1C3(C)C)[C@]1(OC(C)=O)CO[C@@H]1C[C@@H]2O` [Paclitaxel], the “Tumor Inhibition (%)” value with B16 F10 murine melanoma (14.6 mg/Kg intraperitoneally, day 1, 5, 9 after tumor implantation) was 53%; in the series with B16 F10 murine melanoma (22 mg/Kg intraperitoneally, day 1, 5, 9) it was 38%; in the series with B16 F10 murine melanoma (33 mg/Kg intraperitoneally, day 1, 5, 9), 92%. Further, the 50% inhibitory concentration (IC50) in series [1] (Mus musculus) was determined as 39 µM. For the same compound, the “Tubulin Assembly %” value with Calf brain tubulin (0.5 μM) is reported as 41%; in the series on Calf brain tubulin (5 μM), 96%. In addition, the “Appearance of the solution” value (Cremophor EL 50% and ethanol 50%, diluted with glucose 5% solution) is “slightly hazy and precipitates formation was observed after short time”. Moreover, the “Tox: number of mice which died for toxicity” value in series [2] (14.6 mg/Kg intraperitoneally) is 0/10; in series [2] (22 mg/Kg intraperitoneally), 0/10; in series [2] (33 mg/Kg intraperitoneally), 1/7.
Take “Copolymer of 1-methacryloylamino-2-hydroxypropane, 1 (methacryloyl-glycyl-phenylalanyl-leucyl-glycyl)amino-2-hydroxypropane and 2'(methacryloyl-glycyl-phenylalanyl-leucyl-glycyl)paclitaxel [Example 1]”: the half-inhibitory concentration (IC50) in series [1] is 19 µM. In addition, the “Tubulin Assembly %” value is 0% in the series with Calf brain tubulin (0.5 μM) and 15% in the series on Calf brain tubulin (5 μM).
In the case of `CC(=O)OC1C(=O)C2(C)C(OC(=O)CCN)CC3OCC3(OC(C)=O)C2C(OC(=O)c2ccccc2)C2(O)CC(OC(=O)C(O)C(NC(=O)c3ccccc3)c3ccccc3)C(C)=C1C2(C)C` (stereo not shown) [Example 9, 7-(βalanyl)paclitaxel], the half-maximal inhibitory concentration (IC50) in series [1] (Mus musculus) was 47 µM. In addition, the entries for the “Tubulin Assembly %” value with Calf brain tubulin (0.5 μM) and in the series with Calf brain tubulin (5 μM) were 79% and 145%, respectively.
Turning to `CC(=O)OC1C(=O)C2(C)C(O)CC3OCC3(OC(C)=O)C2C(OC(=O)c2ccccc2)C2(O)CC(OC(=O)C(OC(=O)CNC(=O)C(CC(C)C)NC(=O)C(N)Cc3ccccc3)C(NC(=O)c3ccccc3)c3ccccc3)C(C)=C1C2(C)C` (stereo not shown) [Example 3, 2'(phenylalanyl-leucyl-glycyl)paclitaxel], the IC50 in series [1] (Mus musculus) is 23 µM. For the same compound, the “Tubulin Assembly %” value in the series on Calf brain tubulin (0.5 μM) was found to be 46%; in the series on Calf brain tubulin (5 μM), 86%.
For the compound “Copolymer of 1-methacryloylamino-2-hydroxypropane,1-(methacryloyl-glycyl-phenylanyl-leucyl-glycyl)amino-2hydroxypropane and 2(methacryloyl-glycyl-phenylalanyl-leucyl-glycyl-βalanyl)paclitaxel [Example 6]”, the “Tumor Inhibition (%)” value with B16 F10 murine melanoma (14.6 mg/Kg (paclitaxel content) intravenously, day 1, 5, 9) is 77%; with B16 F10 murine melanoma (22 mg/Kg (paclitaxel content) intravenously, day 1, 5, 9), 79%. In addition, the IC50 in series [1] is 51 µM. Besides, the figures for the “Tubulin Assembly %” value in the series with Calf brain tubulin (0.5 μM) and in the series with Calf brain tubulin (5 μM) were 0% and 10%, respectively. The “Dissolution in glucose 5%” value (glucose 5%) is “easily dissolved”. Moreover, the “Time the resulting solution was clear” value (solution in glucose 5%) was “more than 2 hours”. Moreover, the “Tox: number of mice which died for toxicity” value in series [2] (14.6 mg/Kg (paclitaxel content) intravenously) is 0/9; in series [2] (22 mg/Kg (paclitaxel content) intravenously) it was 0/10.

The term IC50 denotes the point on the concentration scale where inhibition reaches its midpoint.
